Measurements reported in publication PMC3250956, “Functional characterization and analgesic effects of mixed cannabinoid receptor/T-type channel ligands” (Molecular Pain, 2011).
Like-named read-outs stand apart in the source and are kept apart here.

Key:
Cav3.2 = molecular target: T1, Cav3.2 (Homo sapiens, UniProt O95180); test: Whole-cell patch-clamp on Cav3.2: concentration-response and steady-state inactivation; assay type: cell-based; conditions: 10 μM; for half-inactivation potential after treatment with drug: n = 4
T1 construct: expressed in transfected cells; host or cells: tsA-201 cells, transient calcium phosphate transfection
Method: To further characterize compounds NMP-4, NMP-7 and NMP-144, we investigated the concentration dependence of their action on Cav3.2, the major T-type calcium channel subtype implicated in the afferent pain pathway (Figure 2B, C).
To determine whether these compounds also affected inactivated channels, we recorded steady-state inactivation curves prior and after application of NMP-4, NMP-7 or NMP-144.
Whole-cell currents were recorded from tsa-201 cells 2-4 days after transfection. The external recording solution contained (in mM): BaCl2 (20), MgCl2 (1), HEPES (10), TEA-Cl (40), CsCl (65), d-glucose (10) and pH 7.2 adjusted with TEA-OH. The internal pipette solution was composed of (in mM) Cs-methanesulfonate (108), MgCl2 (4), EGTA (9), HEPES (9) and pH 7.2 adjusted with CsOH. The internal solution was supplemented with 0.6 mM GTP (sodium salt) and 2 mM ATP (tris salt), which were added directly to the internal solution immediately prior to use. Pipettes with a resistance of 2~5 MΩ when filled with internal solution were used for recording. Currents were elicited from a holding potential of -100 mV and were measured by conventional whole-cell patch clamp using an Axopatch 200B amplifier in combination with Clampex 9.2 software (Axon Instruments, Foster City, CA). Data were filtered at 1 kHz (8-pole Bessel) and digitized at 10 kHz with a Digidata 1320 (Axon Instruments, Foster City, CA). Series resistance were compensated by 85% in all experiments. An online P/4 programme was used to subtract the leak currents. Drugs were dissolved in DMSO at the following stock concentrations: 20 mM for NMP-4 and NMP-7, and 10 mM for NMP-139, NMP-140, NMP-141 and NMP-144. Prior to the experiment, drugs were diluted into external recording solution with a final DMSO concentration no higher than 0.3%. DMSO was also included in the control solution. Drug delivery was controlled by a Valvelink8.2 fast perfusion system (Automate Scientific Inc., Berkeley, CA). The perfusion tip was positioned a few hundred microns from the cell and kept as constant as possible throughout the experiments. Electrophysiological data were analyzed using Clampfit 9.2 (Axon Instruments, Foster City, CA) and GraphPad Prism 5 software (GraphPad Software Inc., San Diego, CA). […] Steady-state inactivation curves were fitted using the Boltzmann equation: I = 1/(1 + e ^(V-Vh)/k), where Vh is the half inactivating potential and k is the slope factor.

Human CB2 = Human CB2 (Homo sapiens, UniProt P34972); test: Radioligand competitive binding, [3H]CP55940, HEK293 cells; parameters: expressed in transfected cells; conditions: for Human CB2 (%) primary radioligand competitive binding: ligand 10 μM, HEK293 cells
Method: HEK293 cells and CHO cells were used in the radioligand binding assay while tsA-201 cells were used in the electrophysiological study. Human CB2, human 5-HT2A, rat 5-HT2C used in the binding studies were cloned into pcDNA5.0FRT and cell lines were made using the FlpIn system from Invitrogen. tsA-201 cell culture and transient calcium channel transfection were performed as described previously. In brief, tsA-201 cells were transfected using the calcium phosphate method. Cav3.1, 3.2 and 3.3 α1 subunits were transfected individually with yellow fluorescent protein as a transfection marker.
CB1 and CB2 radioligand binding data were obtained using National Institute of Mental Health (NIMH) Psychoactive Drug Screening Program (PDSP) resources as described earlier. Compounds were screened in a competitive binding experiment using, respectively, membrane fractions prepared from rat brain homogenate expressing CB1 receptor and HEK293 cells expressing the human CB2 receptor. Experiments were conducted at a range of different concentrations and in duplicate. The competition binding experiment for CB1 and CB2 was performed in 96 well plates containing Standard Binding Buffer (50 mM Tris HCl, 1 mM EDTA, 3 mM MgCl2, 5 mg/ml fatty acid-free BSA, pH 7.4). The radioligand was [^3H]CP55940, and the reference compound was CP55940. A solution of the compound to be tested was prepared as a 1 mg/ml stock in DMSO and then diluted in Standard Binding Buffer by serial dilution. Radioligand was diluted to five times the assay concentration in Standard Binding Buffer. Aliquots (50 μl) of radioligand were dispensed into the wells of a 96-well plate containing 100 μl of Standard Binding Buffer. Then, duplicate 50-μl aliquots of the test and reference compound dilutions were added. Finally, crude membrane fractions of cells were resuspended in 3 ml of chilled Standard Binding Buffer and homogenized by several passages through a 26 gauge needle, then 50 μl were dispensed into each well. The 250-μl reactions were incubated at room temperature for 1.5 hours, and then harvested by rapid filtration onto Whatman GF/B glass fiber filters pre-soaked with 0.3% polyethyleneimine using a 96-well Brandel harverster. Four rapid 500-μl washes were performed. Filters were placed in 6-ml scintillation tubes and allowed to dry overnight. Bound radioactivity was harvested onto 0.3% polyethyleneimine-treated, 96-well filter mats using a 96-well Filtermate harvester. The filter mats were dried, then scintillant was melted onto the filters and the radioactivity retained on the filters counted in a Microbeta scintillation counter. Raw data (dpm) representing total radioligand binding (i.e., specific + non-specific binding) were plotted as a function of the logarithm of the molar concentration of the competitor (i.e., test or reference compound). Non-linear regression of the normalized (i.e., percent radioligand binding compared to that observed in the absence of test or reference compound) raw data was performed in Prism 4.0 (GraphPad Software) using the built-in three parameter logistic model describing ligand competition binding to radioligand-labeled sites: y = bottom + [(top-bottom)/(1 + 10 × -logIC50)] where bottom equals the residual radioligand binding measured in the presence of 10 μM reference compound (i.e., non-specific binding) and top equals the total radioligand binding observed in the absence of competitor. The log IC50 (i.e., the log of the ligand concentration that reduces radioligand binding by 50%) is thus estimated from the data and used to obtain the Ki by applying the Cheng-Prusoff approximation: Ki = IC50/(1 + [ligand]/KD) where [ligand] equals the assay radioligand concentration and KD equals the affinity constant of the radioligand for the target receptor.

T1 sequence (O95180 whole entry): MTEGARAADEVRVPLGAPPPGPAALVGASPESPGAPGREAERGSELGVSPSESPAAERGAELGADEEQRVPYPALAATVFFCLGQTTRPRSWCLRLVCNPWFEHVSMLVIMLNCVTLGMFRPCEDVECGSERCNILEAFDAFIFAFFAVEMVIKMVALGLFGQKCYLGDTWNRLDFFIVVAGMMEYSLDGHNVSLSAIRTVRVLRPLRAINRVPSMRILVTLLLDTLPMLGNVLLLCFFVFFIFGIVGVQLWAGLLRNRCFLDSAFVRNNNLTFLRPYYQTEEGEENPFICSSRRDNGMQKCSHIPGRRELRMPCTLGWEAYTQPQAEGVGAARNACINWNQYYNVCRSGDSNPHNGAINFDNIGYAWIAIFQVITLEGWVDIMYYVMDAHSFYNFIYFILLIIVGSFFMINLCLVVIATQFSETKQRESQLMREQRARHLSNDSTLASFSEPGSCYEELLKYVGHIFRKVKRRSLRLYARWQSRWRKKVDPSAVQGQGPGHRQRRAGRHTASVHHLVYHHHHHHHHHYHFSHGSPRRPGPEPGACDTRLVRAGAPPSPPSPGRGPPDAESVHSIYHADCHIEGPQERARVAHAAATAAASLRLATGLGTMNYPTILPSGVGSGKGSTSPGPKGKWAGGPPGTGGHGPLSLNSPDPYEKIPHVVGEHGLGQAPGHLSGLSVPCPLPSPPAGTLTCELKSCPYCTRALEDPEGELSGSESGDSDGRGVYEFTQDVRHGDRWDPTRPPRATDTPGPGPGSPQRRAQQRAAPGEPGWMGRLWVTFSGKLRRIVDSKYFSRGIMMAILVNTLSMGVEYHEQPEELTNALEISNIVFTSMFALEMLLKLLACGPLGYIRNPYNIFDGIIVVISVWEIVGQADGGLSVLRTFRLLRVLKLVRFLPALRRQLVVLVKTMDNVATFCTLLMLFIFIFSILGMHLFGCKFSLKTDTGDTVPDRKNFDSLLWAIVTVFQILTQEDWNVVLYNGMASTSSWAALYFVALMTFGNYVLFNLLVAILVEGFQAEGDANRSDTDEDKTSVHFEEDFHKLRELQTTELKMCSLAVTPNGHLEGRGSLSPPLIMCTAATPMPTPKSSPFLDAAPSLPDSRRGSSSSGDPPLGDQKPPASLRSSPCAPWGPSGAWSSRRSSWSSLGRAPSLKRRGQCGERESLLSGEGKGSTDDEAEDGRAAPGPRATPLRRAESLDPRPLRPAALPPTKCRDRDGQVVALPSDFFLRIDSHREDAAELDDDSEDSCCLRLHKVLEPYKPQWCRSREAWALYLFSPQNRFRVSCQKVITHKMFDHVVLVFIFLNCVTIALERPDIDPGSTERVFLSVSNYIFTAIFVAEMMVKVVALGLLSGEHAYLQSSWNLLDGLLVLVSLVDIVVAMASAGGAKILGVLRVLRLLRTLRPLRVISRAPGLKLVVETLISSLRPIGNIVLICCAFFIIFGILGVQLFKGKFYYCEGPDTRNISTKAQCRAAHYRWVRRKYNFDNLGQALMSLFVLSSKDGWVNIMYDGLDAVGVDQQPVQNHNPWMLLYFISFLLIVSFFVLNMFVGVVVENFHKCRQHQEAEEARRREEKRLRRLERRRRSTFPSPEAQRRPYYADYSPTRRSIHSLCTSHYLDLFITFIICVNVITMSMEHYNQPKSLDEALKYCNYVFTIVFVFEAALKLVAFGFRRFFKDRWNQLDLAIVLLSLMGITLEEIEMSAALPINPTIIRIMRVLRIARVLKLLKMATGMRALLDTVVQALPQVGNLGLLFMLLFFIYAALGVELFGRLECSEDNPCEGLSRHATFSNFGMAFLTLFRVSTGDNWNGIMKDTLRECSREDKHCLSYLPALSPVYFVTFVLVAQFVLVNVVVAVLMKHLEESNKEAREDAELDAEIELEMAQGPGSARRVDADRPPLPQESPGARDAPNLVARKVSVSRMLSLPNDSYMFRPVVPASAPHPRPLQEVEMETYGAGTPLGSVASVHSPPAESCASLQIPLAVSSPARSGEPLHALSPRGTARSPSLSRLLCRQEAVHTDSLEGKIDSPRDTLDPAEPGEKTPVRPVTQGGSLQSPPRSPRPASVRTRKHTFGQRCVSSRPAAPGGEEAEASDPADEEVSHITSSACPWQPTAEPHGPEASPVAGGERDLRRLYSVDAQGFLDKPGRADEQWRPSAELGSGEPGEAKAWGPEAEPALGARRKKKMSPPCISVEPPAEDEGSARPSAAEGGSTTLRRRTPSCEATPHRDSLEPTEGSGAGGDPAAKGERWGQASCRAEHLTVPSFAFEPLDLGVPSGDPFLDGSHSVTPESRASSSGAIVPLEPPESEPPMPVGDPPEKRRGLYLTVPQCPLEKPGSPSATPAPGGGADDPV
Human CB2, sequence (P34972 whole entry): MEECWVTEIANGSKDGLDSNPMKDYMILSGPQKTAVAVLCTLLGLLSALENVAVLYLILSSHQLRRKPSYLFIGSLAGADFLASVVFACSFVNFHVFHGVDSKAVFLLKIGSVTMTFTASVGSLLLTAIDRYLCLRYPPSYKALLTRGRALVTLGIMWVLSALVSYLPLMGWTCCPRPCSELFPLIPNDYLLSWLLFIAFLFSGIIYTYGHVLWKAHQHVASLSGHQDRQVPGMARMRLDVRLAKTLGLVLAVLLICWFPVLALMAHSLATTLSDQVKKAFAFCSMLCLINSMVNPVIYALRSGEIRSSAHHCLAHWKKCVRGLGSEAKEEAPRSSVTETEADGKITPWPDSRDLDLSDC

CCCCCn1c2ccc(C(=O)N3CCCCC3)cc2c2ccc(OC)cc21 [NMP-4]
hyperpolarizing shift in the half inactivation potential of Cav3.2 channels (Cav3.2): 20 mV
half-inactivation potential after treatment with drug (Cav3.2): -72.9 ± 4.7 mV
Ki (Human CB2; NA: not active at 1 μM, read-out: Mean Ki Human CB2): 7.5 ± 0.7 nM
Human CB2 (%) primary radioligand competitive binding (Human CB2): 104.4%

CCCCCn1c2c(c3ccc(OC)cc31)CN(C(=O)c1ccccc1)CC2 [NMP-144]
hyperpolarizing shift in the half inactivation potential of Cav3.2 channels (Cav3.2): did not significantly affect voltage-dependent inactivation
half-inactivation potential after treatment with drug (Cav3.2): -55.8 ± 2.2 mV
Ki (Human CB2): 706 ± 110 nM
Human CB2 (%) primary radioligand competitive binding (Human CB2): 90.6%
